Measured values: patent publication US9200008B2 (ASKA PHARMACEUTICAL CO., LTD., priority 2010, dated 2015)

Tested on: Human prostate cancer cell lines (PC-3 cells)
Assay: Measurement of cell death-inducing activity (Test Example 1)
Assay type: cell-based
Conditions: PC-3, 48 h, 48 hours after addition, tested at 10, 1, 0.1, 0.025 and 0.00625 μmol/L, qualitative evaluation of 10 fields, read-out: Concentration showing the cell death-inducing activity (cell death-inducing rate not less than 40%)
Summary of the method: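 Compound treatment lasted 48 h at 10 to 0.00625 μmol/L (five levels, DMSO as control) on PC-3 cells pre-cultured 48 h at 37 °C, 5% CO2 after seeding at 1×10^5 cells/well. A cell death-inducing rate of 40% or more counted as active.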

`COc1ccc(/C=N/NC(=O)c2cnc(-c3ccc(Cl)cc3)[nH]2)cc1O` [Example 25-1, 2-(4-Chlorophenyl)-3H-imidazole-4-carboxylic acid[1-(3-hydroxy-4-methoxyphenyl)methylidene]hydrazide] and `COc1ccc(/C=N/NC(=O)c2[nH]c(-c3ccc(Cl)cc3)nc2C)cc1O` [Example 25-5, 2-(4-Chlorophenyl)-5-methyl-3H-imidazole-4-carboxylic acid[1-(3-hydroxy-4-methoxyphenyl)methylidene]hydrazide] are the same in minimal effective concentration: 10 µM for the first, 10 µM for the second.

`Cc1ccccc1-c1ncc(C(=O)N/N=C/c2cc(C)c(O)c(C)c2)[nH]1` [Example 25-2, 2-(2-Methylphenyl)-3H-imidazole-4-carboxylic acid[1-(4-hydroxy-3,5-dimethylphenyl)methylidene]hydrazide] and `Cc1cc(/C=N/NC(=O)c2cnc(-c3ccccc3C)[nH]2)ccc1O` [Example 25-4, 2-(2-Methylphenyl)-3H-imidazole-4-carboxylic acid[1-(4-hydroxy-3-methylphenyl)methylidene]hydrazide] are the same in minimal effective concentration: 10 µM for the first, 10 µM for the second.

Compared with `COc1ccc(/C=N/NC(=O)c2cnc(-c3ccccc3C)[nH]2)cc1O` [Example 25-3, 2-(2-Methylphenyl)-3H-imidazole-4-carboxylic acid[1-(3-hydroxy-4-methoxyphenyl)methylidene]hydrazide], `COc1ccc(/C=N/NC(=O)c2cc(-c3ccccc3OC)ns2)cc1O` [Example 27-7] is 100-fold lower in minimal effective concentration: 10 µM for the first, 0.1 µM for the second.

`Cc1cc(/C=N/NC(=O)c2oc(-c3ccc(Cl)cc3)nc2C)cc(C)c1O` [Example 26-1, 2-(4-Chlorophenyl)-4-methyloxazole-5-carboxylic acid[N′-(4-hydroxy-3,5-dimethylphenyl)methylidene]hydrazide] and `C/C(=N\N=C\c1cc(C)c(O)c(C)c1)c1sc(-c2ccc(Cl)cc2)nc1C` [Example 30-1, 4-{[1-[2-(4-Chlorophenyl)-4-methylthiazol-5-yl]ethylidene]hydrazonomethyl}-2,6-dimethyl-phenol] are the same in minimal effective concentration: 10 µM for the first, 10 µM for the second.

`COc1ccc(/C=N/NC(=O)c2oc(-c3ccccc3OC)nc2C)cc1O` [Example 26-2, 2-(2-Methoxyphenyl)-4-methyloxazole-5-carboxylic acid[N′-(3-hydroxy-4-methoxylphenyl)methylidene]hydrazide] and `COc1ccc(/C=N/NC(=O)c2oc(-c3ccccc3OC)nc2C)cc1C` [Example 26-3] are the same in minimal effective concentration: 10 µM for the first, 10 µM for the second.

First: O=C(N/N=C/c1ccc(OC(F)F)c(O)c1)c1cc(-c2ccc(Cl)cc2Cl)ns1 [Example 27-2]
Second: Cc1cc(/C=N/NC(=O)c2cc(-c3ccc(Cl)cc3Cl)ns2)cc(C)c1O [Example 27-4]
The minimal effective concentration of the first is 10-fold higher: 10 µM for the first, 1 µM for the second.

`COc1ccccc1-c1cc(C(=O)N/N=C/c2cc(C)c(O)c(C)c2)sn1` [Example 27-8] and `Cc1ccccc1-c1cc(C(=O)N/N=C/c2cc(C)c(O)c(C)c2)sn1` [Example 27-10] are the same in minimal effective concentration: 0.1 µM for the first, 0.1 µM for the second.

First: Cc1cc(/C=N/NC(=O)c2cc(-c3ccccn3)ns2)cc(C)c1O [Example 27-12]
Second: Cc1cccnc1-c1cc(C(=O)N/N=C/c2cc(C)c(O)c(C)c2)sn1 [Example 27-13]
The minimal effective concentration of the first is 10-fold higher: 1 µM for the first, 0.1 µM for the second.

`Cc1cc(/C=N/NC(=O)c2snc(-c3ccc(Cl)cc3Cl)c2N)ccc1O` [Example 27-14, 4-Amino-3-(2,4-dichlorophenyl)isothiazole-5-carboxylic acid[1-(4-hydroxy-3-methylphenyl)methylidene]hydrazide] and `Cc1cc(/C=N/NC(=O)c2snc(-c3ccc(Cl)cc3Cl)c2N)cc(C)c1O` [Example 27-15, 4-Amino-3-(2,4-dichlorophenyl)isothiazole-5-carboxylic acid[1-(4-hydroxy-3,5-dimethylphenyl)methylidene]hydrazide] are the same in minimal effective concentration: 10 µM for the first, 10 µM for the second.

First: COc1ccc(COC(=S)Nc2sc(-c3ccc(Cl)cc3OC)nc2C)cc1 [Example 28-1, [2-(4-Chloro-2-methoxyphenyl)-4-methylthiazol-5-yl]thiocarbamic acid O-(4-methoxybenzyl)ester]
Second: COc1ccc(/C=C/C(=O)Nc2sc(-c3ccc(Cl)cc3OC)nc2C)cc1 [Example 34-1, N-[2-(4-Chloro-2-methoxyphenyl)-4-methylthiazol-5-yl]-3-(4-methoxyphenyl)acrylamide]
The minimal effective concentration of the first is 10-fold higher: 10 µM for the first, 1 µM for the second.

`COc1ccc(/C=N/NC(=O)Cc2sc(-c3ccc(Cl)cc3OC)nc2C)cc1` [Example 29-1, [2-(4-Chloro-2-methoxyphenyl)-4-methylthiazol-5-yl]acetic acid[1-(4-methoxyphenyl)methylidene]hydrazide] and `COc1cc(Cl)ccc1-c1nc(C)c(CC(=O)N/N=C/c2cc(C)c(O)c(C)c2)s1` [Example 29-2, [2-(4-Chloro-2-methoxyphenyl)-4-methylthiazol-5-yl]acetic acid[1-(4-hydroxy-3,5-dimethylphenyl)methylidene]hydrazide] are the same in minimal effective concentration: 1 µM for the first, 1 µM for the second.

Compared with `COc1ccc(/C=N/N=C(\C)c2sc(-c3ccc(Cl)cc3)nc2C)cc1O` [Example 30-2], `COc1ccc(COCC(=O)c2sc(-c3ccc(C)cc3C)nc2C)cc1` [Example 31-1, 1-[2-(2,4-Dimethylphenyl)-4-methylthiazol-5-yl]-2-(4-methoxybenzyloxy)ethanone] is 10-fold higher in minimal effective concentration: 1 µM for the first, 10 µM for the second.

First: COc1cc(C)ccc1-c1nc(C)c(NC(=O)OCc2ccc3ncsc3c2)s1 [Example 36-2]
Second: COc1ccc(-c2nc(C)c(NC(=O)OCc3ccc4ncsc4c3)s2)c(OC)c1 [Example 36-3]
The minimal effective concentration of the first is 10-fold lower: 1 µM for the first, 10 µM for the second.

`Cc1ccc(-c2nc(C)c(NC(=O)OCc3ccc4ncsc4c3)s2)c(C)c1` [Example 36-4] and `Cc1ccc(-c2nc(C)c(COC(=O)Nc3ccc4ncsc4c3)s2)c(C)c1` [Example 41-1, Benzothiazol-6-ylcarbamic acid 2-(2,4-dimethylphenyl)-4-methylthiazol-5-ylmethyl ester] are the same in minimal effective concentration: 10 µM for the first, 10 µM for the second.

First: CCc1nc(-c2ccc(F)cc2C)sc1NC(=O)OCc1ccc2ncsc2c1 [Example 36-5]
Second: Cc1ccc(-c2nc(C)c(NC(=O)OCc3ccc4sc(C)nc4c3)s2)c(C)c1 [Example 37-3]
The minimal effective concentration of the first is 10-fold higher: 10 µM for the first, 1 µM for the second.

Compared with `COc1cc(Cl)ccc1-c1nc(C)c(NC(=O)OCc2ccc3sc(C)nc3c2)s1` [Example 37-1, [2-(4-Chloro-2-methoxyphenyl)-4-methylthiazol-5-yl]carbamic acid 2-methylbenzothiazol-5-ylmethyl ester], `COc1cc(C)ccc1-c1nc(C)c(NC(=O)OCc2ccc3sc(C)nc3c2)s1` [Example 37-2] is 10-fold higher in minimal effective concentration: 0.1 µM for the first, 1 µM for the second.

`Cc1nc2cc(COC(=O)Nc3sc(-c4ccc(Cl)cc4C)nc3C)ccc2s1` [Example 37-4] and `Cc1nc2cc(NC(=O)OCc3sc(-c4ccc(Cl)cc4C)nc3C)ccc2s1` [Example 42-2, (2-Methylbenzothiazol-5-yl)carbamic acid 2-(4-chloro-2-methylphenyl)-4-methylthiazol-5-ylmethyl ester] are the same in minimal effective concentration: 1 µM for the first, 1 µM for the second.

Compared with `COc1cc(Cl)ccc1-c1nc(C)c(NC(=O)OCc2ccc3c(c2)nc2n3CCN(C)C2)s1` [Example 38-1, [2-(4-Chloro-2-methoxyphenyl)-4-methylthiazol-5-yl]carbamic acid 2-methyl-1,2,3,4-tetrahydrobenzo[4,5]imidazo[1,2-a]pyrazin-8-ylmethyl ester], `COc1cc(C)ccc1-c1nc(C)c(NC(=O)OCc2ccc3c(c2)nc2n3CCN(C)C2)s1` [Example 38-2, [2-(2-Methoxy-4-methylphenyl)-4-methylthiazol-5-yl]carbamic acid 2-methyl-1,2,3,4-tetrahydrobenzo[4,5]imidazo[1,2-a]pyrazin-8-ylmethyl ester] is 10-fold higher in minimal effective concentration: 1 µM for the first, 10 µM for the second.

First: Cc1ccc(-c2nc(C)c(NC(=O)OCc3ccc4c(c3)nc3n4CCN(C)C3)s2)c(C)c1 [Example 38-3, [2-(2,4-Dimethylphenyl)-4-methylthiazol-5-yl]carbamic acid 2-methyl-1,2,3,4-tetrahydrobenzo[4,5]imidazo[1,2-a]pyrazin-8-ylmethyl ester]
Second: Cc1cc(Cl)ccc1-c1nc(C)c(NC(=O)OCc2ccc3c(c2)nc2n3CCSC2)s1 [Example 40-3, [2-(4-Chloro-2-methylphenyl)-4-methylthiazol-5-yl]carbamic acid 3,4-dihydro-1H-2-thia-4a,9-diazafluoren-7-ylmethyl ester]
The minimal effective concentration of the first is 100-fold higher: 10 µM for the first, 0.1 µM for the second.

Compared with `COc1cc(C)ccc1-c1nc(C)c(NC(=O)OCc2ccc3c(c2)nc2n3CCNC2)s1` [Example 39-1, [2-(2-Methoxy-4-methylphenyl)-4-methylthiazol-5-yl]carbamic acid 1,2,3,4-tetrahydrobenzo[4,5]imidazo[1,2-a]pyrazin-8-ylmethyl ester], `COc1cc(C)ccc1-c1nc(C)c(NC(=O)OCc2ccc3c(c2)nc2n3CCSC2)s1` [Example 40-2, [2-(2-Methoxy-4-methylphenyl)-4-methylthiazol-5-yl]carbamic acid 3,4-dihydro-1H-2-thia-4a,9-diazafluoren-7-ylmethyl ester] is 4-fold lower in minimal effective concentration: 0.1 µM for the first, 0.025 µM for the second.

Compared with `COc1cc(Cl)ccc1-c1nc(C)c(NC(=O)OCc2ccc3c(c2)nc2n3CCSC2)s1` [Example 40-1, [2-(4-Chloro-2-methoxyphenyl)-4-methylthiazol-5-yl]carbamic acid 3,4-dihydro-1H-2-thia-4a,9-diazafluoren-7-ylmethyl ester], `Cc1ccc(-c2nc(C)c(COC(=O)Nc3ccc4sc(C)nc4c3)s2)c(C)c1` [Example 42-1, (2-Methylbenzothiazol-5-yl)carbamic acid 2-(2,4-dimethylphenyl)-4-methylthiazol-5-ylmethyl ester] is 40-fold higher in minimal effective concentration: 0.025 µM for the first, 1 µM for the second.
